Laboratory results taken from ChEMBL document CHEMBL6109077, “Design, synthesis and in vitro validation of bivalent binders of SARS-CoV-2 spike protein: Obeticholic, betulinic and glycyrrhetinic acids as building blocks” (Bioorg Med Chem, 2025).
The source made the active and inactive calls. The rule behind the calls is not given here.

How the values were obtained:
293T/ACE2 [1] = assay: Inhibition of spike protein Omicron BA.2 mutant in pseudotyped SARS-CoV-2 infected in 293T/ACE2 cells assessed as reduction in viral entry at 10 uM preincubated with virus for 1 hr followed by cell infection and measured after 48 hrs by bright-glo luciferase reporter gene assay; assay type: cell-based; details: Severe acute respiratory syndrome coronavirus 2, time 49.0 hrs
293T/ACE2 [2] = assay: Inhibition of spike protein D614G mutant in pseudotyped SARS-CoV-2 infected in 293T/ACE2 cells assessed as reduction in viral entry at 10 uM preincubated with virus for 1 hr followed by cell infection and measured after 48 hrs by bright-glo luciferase reporter gene assay; assay type: cell-based; details: Severe acute respiratory syndrome coronavirus 2, time 49.0 hrs

C=C(C)[C@@H]1CC[C@]2(C(=O)OC)CC[C@]3(C)[C@H](CC[C@@H]4[C@@]5(C)CC[C@H](OC(=O)CCCCCCCCNC(=O)CC[C@@H](C)[C@H]6CC[C@H]7[C@@H]8[C@H](O)[C@H](CC)[C@@H]9C[C@H](O)CC[C@]9(C)[C@H]8CC[C@]67C)C(C)(C)[C@@H]5CC[C@]43C)[C@@H]12
inhibition (293T/ACE2 [1]): Active; Statistically Significant Effect Observed
inhibition (293T/ACE2 [2]): Active; Statistically Significant Effect Observed

CC[C@H]1[C@@H](O)[C@@H]2[C@H](CC[C@]3(C)[C@@H]([C@H](C)CCC(=O)NCCCCCCn4cc(CCCCC(=O)O[C@H]5CC[C@H]6[C@@H](CC[C@]7(C)[C@@H]6C(=O)C=C6[C@@H]8C[C@@](C)(C(=O)OC)CC[C@]8(C)CC[C@]67C)C5(C)C)nn4)CC[C@@H]23)[C@@]2(C)CC[C@@H](O)C[C@@H]12
inhibition (293T/ACE2 [1]): inactive
inhibition (293T/ACE2 [2]): inactive

CC[C@H]1[C@@H](O)[C@@H]2[C@H](CC[C@]3(C)[C@@H]([C@H](C)CCC(=O)O)CC[C@@H]23)[C@@]2(C)CC[C@@H](O)C[C@@H]12
inhibition (293T/ACE2 [1]): Not active; No Statistically Significant Decrease Observed
inhibition (293T/ACE2 [2]): Not active; No Statistically Significant Decrease Observed

C=C(C)[C@@H]1CC[C@]2(C(=O)O)CC[C@]3(C)[C@H](CC[C@@H]4[C@@]5(C)CC[C@H](O)C(C)(C)[C@@H]5CC[C@]43C)[C@@H]12
inhibition (293T/ACE2 [1]): Not active; No Statistically Significant Decrease Observed
inhibition (293T/ACE2 [2]): Not active; No Statistically Significant Decrease Observed

C=C(C)[C@@H]1CC[C@]2(C(=O)OC)CC[C@]3(C)[C@H](CC[C@@H]4[C@@]5(C)CC[C@H](OC(=O)CCCNC(=O)CC[C@@H](C)[C@H]6CC[C@H]7[C@@H]8[C@H](O)[C@H](CC)[C@@H]9C[C@H](O)CC[C@]9(C)[C@H]8CC[C@]67C)C(C)(C)[C@@H]5CC[C@]43C)[C@@H]12
inhibition (293T/ACE2 [1]): Active; Statistically Significant Effect Observed
inhibition (293T/ACE2 [2]): Active; Statistically Significant Effect Observed

C=C(C)[C@@H]1CC[C@]2(C(=O)OC)CC[C@@]3(C)[C@@H]4CC[C@@H]5[C@H](CC[C@H](OC(=O)CCCCc6cn(CCCCCCNC(=O)CC[C@@H](C)[C@H]7CC[C@H]8[C@@H]9[C@H](O)[C@H](CC)[C@@H]%10C[C@H](O)CC[C@]%10(C)[C@H]9CC[C@]78C)nn6)C5(C)C)[C@H]4CC[C@@H]3[C@@H]12
inhibition (293T/ACE2 [1]): Active; Significant Effect Observed
inhibition (293T/ACE2 [2]): inactive

CC1(C)[C@@H](O)CC[C@]2(C)[C@H]3C(=O)C=C4[C@@H]5C[C@@](C)(C(=O)O)CC[C@]5(C)CC[C@@]4(C)[C@]3(C)CC[C@@H]12
inhibition (293T/ACE2 [1]): Not active; No Statistically Significant Decrease Observed
inhibition (293T/ACE2 [2]): Not active; No Statistically Significant Decrease Observed
